In patent US5498775A, “Polyanionic benzylglycosides as inhibitors of smooth muscle cell proliferation” (American Home Products Corporation, priority 1994, dated 1996):

Test system: human and porcine aortic smooth muscle cells and human aortic endothelial cells
Test: Cytotoxicity, MTT assay
Assay type: cell-based
Conditions: up to 250 μM, 24 h at 37° C., without serum
Excerpt: The ability of the compounds of the present invention to inhibit smooth muscle cell proliferation and modulate endothelial cell growth was established using isolated aortic cells obtained from commercial sources or, for certain species, prepared in-house. Cell lines used in this study include human and porcine aortic smooth muscle cells and human aortic endothelial cells. Human aortic cell lines were obtained from Clonetics Corporation (San Diego).
Briefly, cells were again grown in 24 well plates to 70-80% confluency and, as before, serum deprived for 24-48 h prior to initiation of the experimental protocol. To insure that the MTT assay monitored toxicity rather than proliferation, cells were incubated with 250 μM drug in fresh medium without serum for 24 h at 37° C. in a humidified CO2 incubator. Upon completion of the compound treatment, MTT (3-[4,5-dimethylthiazol-2-yl]-2,5-diphenyltetrazolium bromide) indicator dye was added for 4 h at 37° C. Cells were then lysed and aliquots from each well were transferred to a 96 well plate for analysis. Absorbance at 570 nm wavelength with a reference wavelength of 630 nm was recorded using an ELISA plate reader. Results are reported as percent viable using no drug (100% viable) and pre-solubilization (0% viable) standards.

SMILES: Cc1ccc(CO[C@@H]2O[C@H](COS(=O)(=O)O)[C@@H](O[C@H]3O[C@H](COS(=O)(=O)O)[C@@H](OS(=O)(=O)O)[C@H](OS(=O)(=O)O)[C@H]3OS(=O)(=O)O)[C@H](OS(=O)(=O)O)[C@H]2OS(=O)(=O)O)cc1NC(=O)c1cccc(NC(=O)Nc2cccc(C(=O)Nc3cc(CO[C@@H]4O[C@H](COS(=O)(=O)O)[C@@H](O[C@H]5O[C@H](COS(=O)(=O)O)[C@@H](OS(=O)(=O)O)[C@H](OS(=O)(=O)O)[C@H]5OS(=O)(=O)O)[C@H](OS(=O)(=O)O)[C@H]4OS(=O)(=O)O)ccc3C)c2)c1 [EXAMPLE 26, STEP 5]
- cytotoxicity (MTT): No toxicity was observed up to 250 μM
